These results are taken from ChEMBL document CHEMBL5653631, “A Potent and Selective ULK1 Inhibitor Suppresses Autophagy and Sensitizes Cancer Cells to Nutrient Stress” (iScience, 2018).

The target of assay [1] is T1, cGMP-dependent protein kinase 2 (Homo sapiens) (UniProt Q13237).
T1 sequence (whole entry): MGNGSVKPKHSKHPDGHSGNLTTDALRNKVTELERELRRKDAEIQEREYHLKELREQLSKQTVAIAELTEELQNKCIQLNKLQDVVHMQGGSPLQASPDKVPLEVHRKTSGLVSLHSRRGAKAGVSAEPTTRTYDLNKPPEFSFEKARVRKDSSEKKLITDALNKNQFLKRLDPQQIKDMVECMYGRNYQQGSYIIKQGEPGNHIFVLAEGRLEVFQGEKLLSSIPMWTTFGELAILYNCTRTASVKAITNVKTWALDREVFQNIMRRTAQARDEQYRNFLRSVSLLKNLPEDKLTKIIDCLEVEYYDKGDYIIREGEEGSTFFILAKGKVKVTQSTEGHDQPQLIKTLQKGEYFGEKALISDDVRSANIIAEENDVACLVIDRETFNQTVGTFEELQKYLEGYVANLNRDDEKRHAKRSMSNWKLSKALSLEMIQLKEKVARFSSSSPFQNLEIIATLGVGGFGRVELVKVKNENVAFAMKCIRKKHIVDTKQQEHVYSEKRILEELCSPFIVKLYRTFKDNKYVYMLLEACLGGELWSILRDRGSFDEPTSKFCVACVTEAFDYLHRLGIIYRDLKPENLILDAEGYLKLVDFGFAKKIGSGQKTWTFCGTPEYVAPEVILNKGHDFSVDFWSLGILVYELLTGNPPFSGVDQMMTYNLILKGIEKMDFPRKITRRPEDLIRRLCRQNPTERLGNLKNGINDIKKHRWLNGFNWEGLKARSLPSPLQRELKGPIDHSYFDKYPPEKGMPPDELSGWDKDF
Kind of assay: Inhibition of human recombinant PKG2 at 15 nM in presence of ATP by radiometric assay relative to control.

Assay [2] addresses Cyclin-dependent kinase 3 (Homo sapiens) (UniProt Q00526). Put plainly: Inhibition of human recombinant CDK3 at 15 nM related to control ULK1.
Assay [3] concerns the target Death-associated protein kinase 3 (Homo sapiens) (UniProt O43293). Put plainly: Inhibition of human recombinant DAPK3 at 15 nM in presence of ATP by radiometric assay relative to control.
The target of assay [4] is Proto-oncogene tyrosine-protein kinase receptor Ret (Homo sapiens) (UniProt P07949). Put plainly: Inhibition of human recombinant RET at 15 nM in presence of ATP by radiometric assay relative to control.
The target of assay [5] is Focal adhesion kinase 1 (Homo sapiens) (UniProt Q05397). Kind of assay: Inhibition of human recombinant FAK at 40 nM related to control ULK1.
Assay [6] has as its target Mitogen-activated protein kinase kinase kinase 10 (Homo sapiens) (UniProt Q02779). Kind of assay: Inhibition of human recombinant MLK2 at 40 nM in presence of ATP by radiometric assay relative to control.
The target of assay [7] is Serine/threonine-protein kinase PAK 3 (Homo sapiens) (UniProt O75914). Put plainly: Inhibition of human recombinant PAK3 at 40 nM related to control ULK1.
Serine/threonine-protein kinase PAK 3 (Homo sapiens), sequence (O75914 whole entry, looked up): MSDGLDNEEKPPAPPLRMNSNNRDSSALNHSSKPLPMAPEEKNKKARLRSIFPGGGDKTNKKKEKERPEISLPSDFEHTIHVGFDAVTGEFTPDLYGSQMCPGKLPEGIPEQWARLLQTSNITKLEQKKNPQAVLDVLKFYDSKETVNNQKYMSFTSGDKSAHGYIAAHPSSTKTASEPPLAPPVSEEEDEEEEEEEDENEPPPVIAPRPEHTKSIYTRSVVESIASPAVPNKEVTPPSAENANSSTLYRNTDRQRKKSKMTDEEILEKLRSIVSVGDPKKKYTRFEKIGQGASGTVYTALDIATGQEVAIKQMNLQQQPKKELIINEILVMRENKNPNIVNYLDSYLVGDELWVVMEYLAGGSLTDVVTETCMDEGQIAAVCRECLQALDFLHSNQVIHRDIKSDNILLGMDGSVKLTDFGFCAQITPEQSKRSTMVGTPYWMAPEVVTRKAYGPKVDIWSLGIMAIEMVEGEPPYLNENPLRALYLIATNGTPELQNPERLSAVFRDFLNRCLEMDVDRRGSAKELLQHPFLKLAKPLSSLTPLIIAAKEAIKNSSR
In assay [8] the target is Serine/threonine-protein kinase NIM1 (Homo sapiens) (UniProt Q8IY84). Put plainly: Inhibition of human recombinant NIM1 at 40 nM related to control ULK1.
Assay [9] addresses Casein kinase I isoform gamma-3 (Homo sapiens) (UniProt Q9Y6M4). Put plainly: Inhibition of human recombinant CK1g3 at 40 nM related to control ULK1.
Assay [10] addresses T2, NUAK family SNF1-like kinase 2 (Homo sapiens) (UniProt Q9H093).
T2 sequence (whole entry): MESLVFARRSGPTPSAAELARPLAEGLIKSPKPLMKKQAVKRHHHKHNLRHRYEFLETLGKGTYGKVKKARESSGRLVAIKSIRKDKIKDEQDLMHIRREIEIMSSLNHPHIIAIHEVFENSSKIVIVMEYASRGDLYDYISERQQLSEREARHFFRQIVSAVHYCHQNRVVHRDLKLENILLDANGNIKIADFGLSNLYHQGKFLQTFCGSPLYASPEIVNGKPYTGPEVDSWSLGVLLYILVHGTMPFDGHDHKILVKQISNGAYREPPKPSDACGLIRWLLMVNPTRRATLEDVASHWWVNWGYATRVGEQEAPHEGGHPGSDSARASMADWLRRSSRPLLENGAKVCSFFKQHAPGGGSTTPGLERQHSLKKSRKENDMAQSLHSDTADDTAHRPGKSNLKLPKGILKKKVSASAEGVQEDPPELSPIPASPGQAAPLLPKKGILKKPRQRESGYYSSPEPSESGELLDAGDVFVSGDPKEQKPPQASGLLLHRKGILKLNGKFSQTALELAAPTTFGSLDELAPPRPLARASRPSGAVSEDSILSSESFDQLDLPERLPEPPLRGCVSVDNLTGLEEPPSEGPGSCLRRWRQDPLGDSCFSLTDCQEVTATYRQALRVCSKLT
Put plainly: Inhibition of human recombinant NuaK2 at 40 nM related to control ULK1.

In assay [11] the target is Mitogen-activated protein kinase kinase kinase 20 (Homo sapiens) (UniProt Q9NYL2). Kind of assay: Inhibition of human recombinant ZAK at 40 nM in presence of ATP by radiometric assay relative to control.
Mitogen-activated protein kinase kinase kinase 20 (Homo sapiens), sequence (Q9NYL2 2-800 limits assumed): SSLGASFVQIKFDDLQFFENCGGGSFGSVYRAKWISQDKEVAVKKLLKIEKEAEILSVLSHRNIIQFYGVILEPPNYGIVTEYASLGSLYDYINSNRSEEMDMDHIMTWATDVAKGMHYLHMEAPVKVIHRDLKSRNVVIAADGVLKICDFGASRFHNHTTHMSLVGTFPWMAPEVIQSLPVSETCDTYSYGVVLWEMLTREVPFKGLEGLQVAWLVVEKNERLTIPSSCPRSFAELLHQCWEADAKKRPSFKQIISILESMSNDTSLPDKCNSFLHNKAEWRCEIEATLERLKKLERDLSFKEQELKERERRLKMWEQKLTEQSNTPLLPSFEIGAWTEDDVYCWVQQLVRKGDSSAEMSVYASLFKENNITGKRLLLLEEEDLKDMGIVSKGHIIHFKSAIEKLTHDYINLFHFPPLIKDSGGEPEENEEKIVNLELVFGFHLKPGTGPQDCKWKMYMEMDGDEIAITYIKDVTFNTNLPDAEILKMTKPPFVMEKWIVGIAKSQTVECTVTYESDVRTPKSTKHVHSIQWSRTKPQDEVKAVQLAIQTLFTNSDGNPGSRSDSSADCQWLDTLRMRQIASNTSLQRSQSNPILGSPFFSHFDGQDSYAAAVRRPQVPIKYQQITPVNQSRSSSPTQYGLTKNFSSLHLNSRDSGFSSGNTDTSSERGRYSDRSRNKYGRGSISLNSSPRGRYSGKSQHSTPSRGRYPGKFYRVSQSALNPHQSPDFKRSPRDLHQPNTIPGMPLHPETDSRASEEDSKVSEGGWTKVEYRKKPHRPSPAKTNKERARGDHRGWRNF
Assay [12] has as its target Serine/threonine-protein kinase PRP4 homolog (Homo sapiens) (UniProt Q13523). Put plainly: Inhibition of human recombinant PRP4 at 500 nM in presence of ATP by radiometric assay relative to control.
The target of assay [13] is Serine/threonine-protein kinase 35 (Homo sapiens) (UniProt Q8TDR2). Put plainly: Inhibition of human recombinant CLIK1 at 500 nM in presence of ATP by radiometric assay relative to control.
Serine/threonine-protein kinase 35 (Homo sapiens), sequence (Q8TDR2 whole entry): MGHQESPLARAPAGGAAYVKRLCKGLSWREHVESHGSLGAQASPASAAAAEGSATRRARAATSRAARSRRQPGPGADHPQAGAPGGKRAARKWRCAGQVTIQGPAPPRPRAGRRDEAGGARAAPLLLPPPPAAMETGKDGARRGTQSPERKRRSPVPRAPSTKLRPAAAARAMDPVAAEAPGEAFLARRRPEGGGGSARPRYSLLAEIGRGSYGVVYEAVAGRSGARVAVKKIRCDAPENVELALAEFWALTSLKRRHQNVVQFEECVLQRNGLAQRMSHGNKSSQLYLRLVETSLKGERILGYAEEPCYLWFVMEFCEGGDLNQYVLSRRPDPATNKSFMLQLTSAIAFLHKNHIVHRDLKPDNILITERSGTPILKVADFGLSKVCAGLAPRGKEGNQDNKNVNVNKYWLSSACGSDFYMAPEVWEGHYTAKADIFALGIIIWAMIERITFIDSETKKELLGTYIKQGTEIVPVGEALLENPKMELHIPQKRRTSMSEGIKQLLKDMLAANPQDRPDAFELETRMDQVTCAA
In assay [14] the target is T1, cGMP-dependent protein kinase 2 (Homo sapiens). Put plainly: Inhibition of human recombinant PKG2 at 500 nM in presence of ATP by radiometric assay relative to control.
The target in assay [15] is Casein kinase II subunit alpha' (Homo sapiens) (UniProt P19784). Put plainly: Inhibition of human recombinant CK2a2 at 500 nM related to control ULK1.
Casein kinase II subunit alpha' (Homo sapiens), sequence (P19784 whole entry, looked up): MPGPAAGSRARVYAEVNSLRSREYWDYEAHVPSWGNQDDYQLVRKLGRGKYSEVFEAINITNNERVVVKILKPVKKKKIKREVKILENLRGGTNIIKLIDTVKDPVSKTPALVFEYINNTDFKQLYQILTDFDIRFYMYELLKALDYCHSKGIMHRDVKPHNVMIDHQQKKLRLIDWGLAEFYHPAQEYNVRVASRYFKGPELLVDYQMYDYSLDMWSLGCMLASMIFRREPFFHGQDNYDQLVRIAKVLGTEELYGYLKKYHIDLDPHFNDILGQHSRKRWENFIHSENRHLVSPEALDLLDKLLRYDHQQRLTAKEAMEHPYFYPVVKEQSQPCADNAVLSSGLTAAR
For assay [16], the target named is Calcium/calmodulin-dependent protein kinase type II subunit beta (Homo sapiens) (UniProt Q13554). Put plainly: Inhibition of human recombinant CaMK2b at 500 nM in presence of ATP by radiometric assay relative to control.
Calcium/calmodulin-dependent protein kinase type II subunit beta (Homo sapiens), sequence (Q13554 whole entry): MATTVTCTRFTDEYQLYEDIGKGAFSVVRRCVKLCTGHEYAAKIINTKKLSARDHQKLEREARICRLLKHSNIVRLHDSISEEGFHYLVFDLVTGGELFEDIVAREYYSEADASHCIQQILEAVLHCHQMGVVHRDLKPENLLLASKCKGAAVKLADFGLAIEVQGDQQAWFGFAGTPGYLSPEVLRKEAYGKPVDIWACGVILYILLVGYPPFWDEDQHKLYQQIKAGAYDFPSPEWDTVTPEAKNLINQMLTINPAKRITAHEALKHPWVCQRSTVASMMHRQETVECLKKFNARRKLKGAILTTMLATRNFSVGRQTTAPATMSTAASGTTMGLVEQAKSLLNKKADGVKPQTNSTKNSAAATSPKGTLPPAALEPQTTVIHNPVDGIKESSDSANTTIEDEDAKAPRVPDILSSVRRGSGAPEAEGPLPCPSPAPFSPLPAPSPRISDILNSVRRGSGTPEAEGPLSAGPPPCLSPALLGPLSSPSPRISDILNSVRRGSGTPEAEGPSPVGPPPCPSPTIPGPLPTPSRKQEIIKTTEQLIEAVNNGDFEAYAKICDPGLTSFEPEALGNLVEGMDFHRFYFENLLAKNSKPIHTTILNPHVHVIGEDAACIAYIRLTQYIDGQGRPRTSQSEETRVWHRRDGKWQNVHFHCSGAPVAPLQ

Cyclin-dependent kinase 3 (Homo sapiens), sequence (Q00526 whole entry, looked up): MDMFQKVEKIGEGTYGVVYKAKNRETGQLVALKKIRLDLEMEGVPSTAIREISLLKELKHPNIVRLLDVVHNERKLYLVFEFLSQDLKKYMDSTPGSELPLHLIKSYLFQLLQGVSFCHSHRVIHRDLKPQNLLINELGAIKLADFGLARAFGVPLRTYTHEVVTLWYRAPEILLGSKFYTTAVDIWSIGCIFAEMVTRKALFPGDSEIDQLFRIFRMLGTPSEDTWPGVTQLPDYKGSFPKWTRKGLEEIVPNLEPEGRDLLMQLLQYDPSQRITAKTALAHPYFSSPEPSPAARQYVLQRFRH
Serine/threonine-protein kinase PRP4 homolog (Homo sapiens), sequence (Q13523 whole entry): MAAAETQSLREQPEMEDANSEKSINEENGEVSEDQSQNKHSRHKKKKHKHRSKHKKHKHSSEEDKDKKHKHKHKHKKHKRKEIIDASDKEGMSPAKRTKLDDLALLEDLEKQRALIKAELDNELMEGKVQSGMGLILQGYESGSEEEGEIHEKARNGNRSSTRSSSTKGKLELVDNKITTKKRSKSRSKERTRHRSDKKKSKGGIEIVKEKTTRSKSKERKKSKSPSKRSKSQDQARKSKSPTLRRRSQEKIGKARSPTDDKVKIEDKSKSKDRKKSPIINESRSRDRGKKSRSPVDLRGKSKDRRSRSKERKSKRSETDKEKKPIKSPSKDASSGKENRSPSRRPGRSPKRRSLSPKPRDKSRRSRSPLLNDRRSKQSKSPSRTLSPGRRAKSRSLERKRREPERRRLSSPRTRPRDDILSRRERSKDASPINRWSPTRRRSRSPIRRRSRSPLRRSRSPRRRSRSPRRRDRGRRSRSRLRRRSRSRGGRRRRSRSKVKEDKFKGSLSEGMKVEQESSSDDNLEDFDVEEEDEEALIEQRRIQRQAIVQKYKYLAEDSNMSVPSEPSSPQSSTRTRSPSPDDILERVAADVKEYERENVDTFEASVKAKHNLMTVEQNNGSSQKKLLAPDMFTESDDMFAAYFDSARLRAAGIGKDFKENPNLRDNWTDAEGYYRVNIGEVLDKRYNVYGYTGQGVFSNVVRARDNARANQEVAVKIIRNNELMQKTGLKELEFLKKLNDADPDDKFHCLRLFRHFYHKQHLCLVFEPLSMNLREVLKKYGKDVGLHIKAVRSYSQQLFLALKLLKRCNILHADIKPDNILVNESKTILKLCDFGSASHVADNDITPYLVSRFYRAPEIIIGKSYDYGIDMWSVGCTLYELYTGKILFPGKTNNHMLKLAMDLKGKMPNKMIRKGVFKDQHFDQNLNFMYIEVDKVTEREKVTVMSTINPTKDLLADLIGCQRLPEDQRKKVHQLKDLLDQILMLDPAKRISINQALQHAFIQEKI
Death-associated protein kinase 3 (Homo sapiens), sequence (O43293 whole entry, looked up): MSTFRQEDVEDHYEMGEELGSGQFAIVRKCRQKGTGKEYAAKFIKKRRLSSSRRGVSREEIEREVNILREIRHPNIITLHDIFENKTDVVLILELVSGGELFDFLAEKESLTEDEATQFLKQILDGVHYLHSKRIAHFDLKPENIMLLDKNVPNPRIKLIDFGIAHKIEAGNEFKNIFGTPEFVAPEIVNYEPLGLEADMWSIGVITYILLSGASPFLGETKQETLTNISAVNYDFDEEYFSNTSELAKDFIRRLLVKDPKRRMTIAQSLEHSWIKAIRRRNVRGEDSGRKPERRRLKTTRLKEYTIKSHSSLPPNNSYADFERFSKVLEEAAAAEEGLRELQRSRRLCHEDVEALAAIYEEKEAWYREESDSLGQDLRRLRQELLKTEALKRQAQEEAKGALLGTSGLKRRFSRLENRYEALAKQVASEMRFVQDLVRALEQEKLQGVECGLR

`CC(C)[C@H](NC(=O)c1cc(-c2cnn3cc(-c4ccc(OCCN5CCCCC5)cc4)cnc23)cs1)C(F)(F)F`: the inhibition was 4% in assay [1], 0% in assay [3] and 14% in [4]. Further, the fold change (FC) in [2] came to 0.06.

Take `O=C(N[C@@H](C1CC1)C(F)(F)F)c1cc(-c2cnn3cc(-c4ccc(F)cc4)cnc23)cs1`: the fold change (FC) in [5] is 0; in [7] it was 0; in [8], 0; in assay [9] it was 0.05; in [10], 0.04. The inhibition in assay [6] and in assay [11] was 0% each time.

`CNC(=O)c1ccccc1Oc1nc(Nc2cc(OC)c(OC)c(OC)c2)ncc1Br`: the inhibition in assay [12] worked out at 2%; in [13], 3%; in assay [14], 2%; in assay [16] it was 0%. The fold change (FC) in assay [15] was determined as 0.07.

For orientation: inhibition means the change of the read-out against control, counted positive when it falls.
